From PMC6685951, “Migration of Bacteriocins Across Gastrointestinal Epithelial and Vascular Endothelial Cells, as Determined Using In Vitro Simulations” (Scientific Reports, 2019)
In brackets after ≈: the same amount, converted by molar mass. Where a SMILES comes first, the peptide text is derived from it. Bridges are numbered along the chain shown (N, C = ends).

Legend:
[1] = test system: Caco-2 cells; assay: XTT viability assay, Caco-2; format: cell-based, human; conditions: 24 h, 37 °C
Description: (§1) For viability and cytotoxicity studies, cells were seeded in 96-well flat-bottom culture plates (1 × 10^4 cells/well). To determine migration of nisin A, plantaricin 423 and bacST4SA across the gastrointestinal epithelial and vascular endothelial barriers, HUVEC and Caco-2 cells were grown on an 8 µm pore size tissue culture insert, as shown in Fig. 1. All cell culture experiments were done in triplicate and have been repeated more than three times.
(§2) Cells were grown in 100 µL of culture medium for 24 h at 37 °C. The bacteriocins were separately added to the cells at concentrations of 25 µM, 50 µM and 100 µM. Sterile ultrapure water was used as control. After 24 h of incubation at 37 °C, the reaction mixture containing PMS (N-methyl-dibenzopyrazine-methylsulfate/phenazine methosulphate) and XTT solution, was added to each well and incubated for 4 h at 37 °C. Absorbance readings were recorded at 450 nm, using a microtiter plate reader. The percentage viability was calculated as AT/AC × 100; where AT is the absorbance of peptide-treated cells and AC is the absorbance of control (untreated cells).

[2] = test system: L. monocytogenes EGDe; format: cell-based, Listeria monocytogenes; conditions: microtiter plate, Listeria enrichment broth, 37 °C, OD600; lowest concentration inhibiting growth after 18 h
Description: The BCA assay was used according to the manufactures instructions to determine the concentration of the peptides. The MIC of the peptides was determined using a microtiter plate. Briefly, L. monocytogenes EGDe was inoculated into Listeria enrichment broth (LEB) and incubated overnight at 37 °C. The culture was inoculated into fresh LEB and incubated until an OD600 of 0.1 was reached. A series of peptide concentrations was prepared and 50 µL of each added per well, followed by the addition of 150 µL culture. The controls were ddH2O containing 0.1% (v/v) TFA with 150 µL culture or media. Microtiter plates were incubated at 37 °C and OD600 readings were taken at T0, T5 and T18 (hours). The MIC was determined as the lowest peptide concentration required to inhibit the growth of L. monocytogenes EGDe after 18 h.

[3] = test system: Caco-2 cells; assay: LDH release assay, Caco-2; format: cell-based, human; conditions: 24 h
Description: as §1
HUVEC and Caco-2 cells were exposed to three different concentrations (25 µM, 50 µM and 100 µM) nisin A, plantaricin 423 and bacST4SA and the presence of extracellular LDH determined using the LDH release assay kit. Sterile ultrapure water was used as negative control (referred to as spontaneous LDH activity) and lysis buffer (10X) was used as positive control (referred to as maximum LDH activity). After incubating the cultures in the presence of the peptides for 24 h at 37 °C, culture supernatants were pipetted into a 96-well plate. Reaction mixture was added to the supernatants and plates were incubated at 25 °C for 30 min. Absorbance was measured at 490 nm and 680 nm, respectively. The percentage cytotoxicity was calculated as follows (1):1 %Cytotoxicity=(Compound−treatedLDHactivity)−(SpontaneousLDHactivity)/MaximumLDHactivity−SpontaneousLDHactivity×100

[4] = test system: Caco-2 cell monolayer; assay: Migration across Caco-2 monolayer on transmigration inserts; format: in vitro ADME, human; conditions: 3 h
Description: as §1
HUVECs and Caco-2 cells were seeded onto transmigration inserts (Fig. 1) at a cell density of 1 × 10^5 cells/insert (200 µL). Inserts were carefully placed in a 24-well tissue culture plate containing 700 µL cell growth media. […] The integrity of the monolayers was monitored by ensuring trans-epithelial electrical resistance (TEER) readings remained above 300 Ω throughout the experiment (Millicell-ERS volt-ohm meter, Merck)[51],[52],[62]. […] Transmigration inserts containing no monolayer, was used to determine the total fluorescence. Samples were incubated for 3 h while absorbance was measured at 490 nm every 30 min using a microplate reader. Before each reading, inserts were removed and placed into new microplates containing fresh media. […]
The percentage of peptide that attached to, or entered the cells was quantified by subtracting the sum of migrated peptide (eq. 4) and retained peptide (eq. 5) from the total fluorescence. […]

[5] = test system: HUVEC; assay: XTT viability assay, HUVEC; format: cell-based, human; conditions: 24 h, 37 °C
Description: as §1, §2

CC(C)C[C@@H]1NC(=O)[C@H](Cc2c[nH]cn2)NC(=O)[C@H](CO)NC(=O)[C@H](C(C)C)NC(=O)[C@H](CO)NC(=O)[C@@H](NC(=O)[C@H](CO)NC(=O)[C@H](Cc2ccccc2)NC(=O)[C@H](C)NC(=O)[C@H](CCC(N)=O)NC(=O)CNC(=O)[C@H](Cc2c[nH]c3ccccc23)NC(=O)[C@H](CC(N)=O)NC(=O)[C@@H](NC(=O)[C@H](CO)NC(=O)[C@@H]2CSSC[C@H](NC(=O)[C@@H](NC(=O)[C@@H](NC(=O)CNC(=O)[C@H](CC(N)=O)NC(=O)CNC(=O)[C@H](Cc3ccc(O)cc3)NC(=O)[C@H](Cc3ccc(O)cc3)NC(=O)[C@@H](N)CCCCN)C(C)C)[C@@H](C)O)C(=O)NCC(=O)N[C@@H](CCCCN)C(=O)N[C@@H](Cc3c[nH]cn3)C(=O)N[C@@H](CO)C(=O)N2)C(C)C)CSSC[C@@H](C(=O)O)NC(=O)[C@H](CCCCN)NC(=O)CNC(=O)[C@H](Cc2c[nH]cn2)NC(=O)CNC(=O)[C@H](Cc2ccccc2)NC(=O)[C@H](CC(N)=O)NC(=O)[C@H](C)NC1=O [plantaricin 423] (H-KYYGNGVTCGKHSCSVNWGQAFSCSVSHLANFGHGKC-OH; disulfide 9-14, 24-37; N-terminus and C-terminus assumed)
cell viability (XTT) ([1]; Caco-2, 25 µM and 50 µM (up to 50 µM), absorbance 450 nm): did not cause significant decreases
cell viability (XTT) ([1]; Caco-2, 100 µM): slight reduction
MIC [2]: 12 µM (≈ 47.2 µg/mL)
cytotoxicity level (LDH release) ([3]; Caco-2, 100 µM, 37 °C, percentage of maximum LDH release (lysis buffer = 100%)): 17%
toxicity (LDH release) ([3]; Caco-2, concentrations up to 100 µM): minimal toxicity
percentage attached and/or entered peptide ([4]; Caco-2, labelled peptide 50 µM, total fluorescence minus migrated and residual peptide): 11%
migrated peptide ([4]; Caco-2 monolayer on 8 µm pore insert, apical addition, NHS-fluorescein labelled peptide 50 µM, 37 °C, TEER above 300 Ω, read at 490 nm, % of no-monolayer control, triplicate): 85%
cell viability (XTT) ([5]; 25 µM and 50 µM (up to 50 µM), absorbance 450 nm): did not cause significant decreases
cell viability (XTT) ([5]; 100 µM): slight reduction
